For assay [1], the system named is primary human lung fibroblasts. Kind of assay: LPA-induced COL1A1 expression (immunocytochemistry). The class given is cell-based. The settings on record: Homo sapiens, Fibroblast; 1 µM LPA 8 h; compound overnight; read-out: IC50 inhibition of COL1A1 expression. How it is done:
COL1A1 assay: Primary human lung fibroblasts were plated in a 96-well plate and allowed to adhere. […] The next day, cells were treated with 1 µM LPA and incubated for 8 h. After incubation in LPA, cells were immunostained for COL1A1. Cells were fixed in formalin for 10 min, washed 3 x with PBS, incubated in collagen 1A1 antibody (1:250 in blocking buffer, 0.1% Triton X-100 in PBS, 2 h), and washed 3 x with PBS. Secondary antibody solution (1:500) and Hoechst (1:2000) were added for 1 h, washed 3 x in PBS then imaged on a Nikon A1R confocal microscope at 10x magnification except human lung fibroblasts which were imaged at 4x. Collagen area was quantified with ImageJ and normalized to Hoechst per image.

Assay [2] addresses LPAR1 (Homo sapiens, UniProt Q92633). Kind of assay: LPAR1 calcium mobilization (reference compounds). The class given is cell-based. How it is done: B. C. LPAR1 Averaged Data (n=4) 200 […] 125 Nonspecific Binding 2nM 600 Specific Binding 150 1nM 100 75 400 100 50 200 25 50 0 0 -25 0 2 4 6 8 10 120 -10 -9 -8 -7 -6 -5[3H]-PIPE-497 (nM) 0 25 50 75 100 125 log[PIPE-497], M Time Figure S3. PIPE- 497 is a potent L P AR 1 receptor antagonist with properties suitable as an in vivo radioligand. A. L P AR 1 calcium mobilization data showing that PIPE-497 (non-tritiated) is a p ot ent […] B. Saturation binding curves of 3H-PIPE-497 to huma n LPAR1 membranes (n=2, error bars are SEM). C. Binding kinetics of 3H-PIPE-497 in recombinant membranes. […] with 10 μM PIPE- 497 th en add ed to membranes at different time points resulting in a residence time of 16.2 minutes (n=4, error bars are SEM). […] At 10 mg/kg, th e free p las ma exposure of BM S -986278 exceeds its measured IC 5 0 up until 4 h p ost d ose. […] IC50 LPAR1)

LPAR1, sequence (Q92633 whole entry): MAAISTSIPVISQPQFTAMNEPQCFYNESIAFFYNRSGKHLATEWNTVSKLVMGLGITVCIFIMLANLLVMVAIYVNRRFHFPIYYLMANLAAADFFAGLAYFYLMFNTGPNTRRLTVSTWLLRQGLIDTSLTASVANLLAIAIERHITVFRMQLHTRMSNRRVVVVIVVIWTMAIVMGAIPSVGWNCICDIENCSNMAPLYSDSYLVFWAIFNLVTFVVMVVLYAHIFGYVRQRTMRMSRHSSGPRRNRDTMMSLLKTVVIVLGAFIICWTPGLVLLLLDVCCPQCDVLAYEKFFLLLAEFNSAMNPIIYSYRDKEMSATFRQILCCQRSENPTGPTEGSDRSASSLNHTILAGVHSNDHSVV

Take `CCCN(C)C(=O)OCc1c(-c2ccc(O[C@H]3CCC[C@H](C(=O)O)C3)c(C)n2)nnn1C` [BMS-986278, reference compound]: the results for the concentration for half-maximal inhibition (IC50) in assay [1] and in assay [2] were 30.6 nM and 80.4 nM, respectively.

As usually defined, the IC50 is the midpoint of a concentration-inhibition curve.

(Values after article PMC12400753 (Respiratory Research, 2025).)
